Details: Gas, Cylindrical cavity resonance method

O=C=O [carbon dioxide]
Details | speed of sound [m/s]
260 K, 317.37 kPa | 249.8
260 K, 379.95 kPa | 249.06
260 K, 434.17 kPa | 248.41
260 K, 501.31 kPa | 247.6
260 K, 562.69 kPa | 246.84
260 K, 626.77 kPa | 246.05
260 K, 701.21 kPa | 245.12
260 K, 760.19 kPa | 244.37
260 K, 822.03 kPa | 243.58
260 K, 884.92 kPa | 242.76
270 K, 305.05 kPa | 254.61
270 K, 362.27 kPa | 254.01
270 K, 460.73 kPa | 252.96
270 K, 556.68 kPa | 251.92
270 K, 644.89 kPa | 250.96
270 K, 732.1 kPa | 250
270 K, 819.89 kPa | 249.01
270 K, 906.73 kPa | 248.03
270 K, 977.38 kPa | 247.22
280 K, 280.31 kPa | 259.38
280 K, 362.38 kPa | 258.61
280 K, 453.25 kPa | 257.75
280 K, 537.04 kPa | 256.95
280 K, 621.46 kPa | 256.13
280 K, 692.2 kPa | 255.44
280 K, 798.98 kPa | 254.39
280 K, 884.2 kPa | 253.55
280 K, 981.82 kPa | 252.56
290 K, 228.71 kPa | 264.19
290 K, 282.86 kPa | 263.73
290 K, 355.64 kPa | 263.12
290 K, 421.86 kPa | 262.56
290 K, 490.56 kPa | 261.98
290 K, 571.6 kPa | 261.28
290 K, 655.16 kPa | 260.56
290 K, 733.65 kPa | 259.88
290 K, 819.49 kPa | 259.12
300 K, 280.85 kPa | 268.06
300 K, 340.26 kPa | 267.62
300 K, 415.37 kPa | 267.05
300 K, 500.85 kPa | 266.39
300 K, 583.49 kPa | 265.76
300 K, 663.9 kPa | 265.13
300 K, 755.49 kPa | 264.42
300 K, 847.25 kPa | 263.7
300 K, 927.15 kPa | 263.07
300 K, 1017.3 kPa | 262.36
304.09 K, 434.91 kPa | 268.66
304.09 K, 544.65 kPa | 267.86
304.09 K, 772.25 kPa | 266.17
304.09 K, 868.88 kPa | 265.45
304.09 K, 968.58 kPa | 264.69
312.75 K, 394.2 kPa | 272.63
312.75 K, 441.68 kPa | 272.31
312.75 K, 534.77 kPa | 271.69
312.75 K, 636.23 kPa | 271
312.75 K, 729.55 kPa | 270.37
312.75 K, 858.54 kPa | 269.49
312.75 K, 959.38 kPa | 268.8
322.75 K, 314.03 kPa | 277.28
322.75 K, 412.26 kPa | 276.69
322.75 K, 522.36 kPa | 276.02
322.75 K, 624.83 kPa | 275.4
322.75 K, 735.59 kPa | 274.72
322.75 K, 832.63 kPa | 274.13
322.75 K, 929.78 kPa | 273.53
332.75 K, 316.28 kPa | 281.3
332.75 K, 415.5 kPa | 280.76
332.75 K, 520.66 kPa | 280.19
332.75 K, 544.84 kPa | 280.05
332.75 K, 664.72 kPa | 279.39
332.75 K, 755.5 kPa | 278.89
332.75 K, 857.33 kPa | 278.33
332.75 K, 958.15 kPa | 277.78

C=CC [propene]
Details | speed of sound [m/s]
260 K, 164.45 kPa | 238.03
260 K, 185.32 kPa | 237.15
260 K, 206.56 kPa | 236.23
260 K, 227.97 kPa | 235.29
260 K, 248.96 kPa | 234.36
260 K, 275.35 kPa | 233.17
260 K, 293.11 kPa | 232.48
270 K, 144.04 kPa | 243.6
270 K, 173.01 kPa | 242.51
270 K, 206.19 kPa | 241.23
270 K, 236.28 kPa | 240.06
270 K, 262.89 kPa | 239
270 K, 263.03 kPa | 239
270 K, 302.89 kPa | 237.39
270 K, 333.53 kPa | 236.13
270 K, 361.31 kPa | 234.96
270 K, 389.41 kPa | 233.76
280 K, 149.29 kPa | 247.97
280 K, 188.35 kPa | 246.64
280 K, 226.29 kPa | 245.31
280 K, 267.79 kPa | 243.84
280 K, 308.73 kPa | 242.37
280 K, 354.13 kPa | 240.69
280 K, 397.57 kPa | 239.06
280 K, 438.3 kPa | 237.49
280 K, 438.33 kPa | 237.49
280 K, 478.89 kPa | 235.89
280 K, 519.72 kPa | 234.24
280 K, 556.25 kPa | 232.73
290 K, 141.01 kPa | 252.63
290 K, 199.13 kPa | 250.82
290 K, 257.68 kPa | 248.96
290 K, 313.39 kPa | 247.15
290 K, 372.8 kPa | 245.18
290 K, 434.96 kPa | 243.06
290 K, 495.22 kPa | 240.95
290 K, 553.22 kPa | 238.87
290 K, 616.94 kPa | 236.51
290 K, 672.07 kPa | 234.4
290 K, 677.98 kPa | 234.17
290 K, 695.54 kPa | 233.48
300 K, 134.71 kPa | 257.09
300 K, 182.3 kPa | 255.75
300 K, 260.81 kPa | 253.49
300 K, 344.4 kPa | 251.01
300 K, 425.25 kPa | 248.56
300 K, 505.72 kPa | 246.04
300 K, 582.66 kPa | 243.56
300 K, 661.1 kPa | 240.94
300 K, 740.35 kPa | 238.22
300 K, 826.4 kPa | 235.15
300 K, 903.31 kPa | 232.29
300 K, 960.98 kPa | 230.07
310 K, 142.07 kPa | 261.05
310 K, 235.24 kPa | 258.61
310 K, 325.91 kPa | 256.18
310 K, 424.89 kPa | 253.46
310 K, 520.89 kPa | 250.75
310 K, 623.06 kPa | 247.76
310 K, 713.38 kPa | 245.04
310 K, 810.73 kPa | 242.01
310 K, 906.76 kPa | 238.9
310 K, 952.69 kPa | 237.37
320 K, 142.67 kPa | 265.1
320 K, 210.07 kPa | 263.49
320 K, 279.66 kPa | 261.81
320 K, 349.85 kPa | 260.08
320 K, 425.07 kPa | 258.19
320 K, 509.07 kPa | 256.04
320 K, 596.12 kPa | 253.77
320 K, 677.09 kPa | 251.6
320 K, 756.59 kPa | 249.42
320 K, 834.83 kPa | 247.22
320 K, 905.02 kPa | 245.21
320 K, 976.94 kPa | 243.09
330 K, 151.93 kPa | 268.88
330 K, 227.66 kPa | 267.22
330 K, 302.35 kPa | 265.55
330 K, 380.89 kPa | 263.77
330 K, 455.62 kPa | 262.04
330 K, 550.82 kPa | 259.81
330 K, 642.65 kPa | 257.6
330 K, 732.74 kPa | 255.39
330 K, 821.61 kPa | 253.16
330 K, 912.04 kPa | 250.84
330 K, 1001.4 kPa | 248.5

Source: the NIST ThermoML archive (doi:10.1021/je500424b)
